From US7056940B2, “Insecticidal 3-(2,6-disubstituted phenyl)-5-[5-arylthien-2-yl]-1,2,4-triazoles” (Dow AgroSciences LLC, priority 2001, dated 2006)

How the values were obtained:
Type in all cases: in vivo
[1] = test system: Sweetpotato Whitefly (Bemisia tabacia); assay: Insecticidal test for sweetpotato whitefly, spray on cotton plants; set-up: key: A: 90–100; B: 80–89; C: 70–79; D: 60–69; E: 50–59; F: less than 50; G: Inactive; conditions: 200 ppm spray, 13 days, large nymphs
Procedure: Insecticidal Test for Sweetpotato Whitefly (Bemisia tabacia)
Four mg of each test compound was dissolved by adding 4 mL of a 90:10 acetone:ethanol solvent mixture to the vial containing the sample compound. This solution was added to 16 mL of water containing 0.05% Tween 20 surfactant to produce 20 mL of an 200 ppm spray solution.
Five-week-old cotton plants reared in a greenhouse were stripped of all foliage except for the two uppermost true leaves that were greater than 5 cm in diameter. These plants were then placed into a laboratory colony of whiteflies for two days for oviposition by the colony females. All whiteflies were then removed from the test plants with pressurized air. The spray solution was then applied to the test plants with a hand-held syringe fitted with hollow cone nozzle. One mL spray solution was applied to each leaf top and bottom for a total of 4 mL per plant. Four replications of each test compound utilized a total of 16 mL spray solution. Plants were air dried and then placed in a holding chamber (28° C. and 60% RH) for 13 days. Compound efficacy was evaluated by counting, under an illuminated magnifying glass, the number of large nymphs (3rd–4th instar) per leaf.
Percent control based on reduction of large nymphs of a test compound compared to solution-only (no test compound) sprayed plants is reported in Tables 1–4.

[2] = test system: Tobacco Budworm (Heliothis virescens); assay: Insecticidal test for tobacco budworm, treated cotton cotyledon leaf disc; set-up: key: A: 90–100; B: 80–89; C: 70–79; D: 60–69; E: 50–59; F: less than 50; G: Inactive; conditions: cotton cotyledon leaf-dip, 2nd instar larvae, 5 days
From the text: (§1) The compounds are useful for reducing populations of insects and mites and are useful in a method of inhibiting an insect or mite population which comprises applying to a locus of the insect or mite an effective insect- or mite-inactivating amount of a compound of formula (1). The “locus” of insects or mites is a term used herein to refer to the environment in which the insects or mites live or where their eggs are present, including the air surrounding them, the food they eat, or objects which they contact. For example, insects or mites which eat or contact edible or ornamental plants can be controlled by applying the active compound to plant parts such as the seed, seedling, or cutting which is planted, the leaves, stems, fruits, grain, or roots, or to the soil in which the roots are growing. It is contemplated that the compounds might also be useful to protect textiles, paper, stored grain, seeds, domesticated animals, buildings or human beings by applying an active compound to or near such objects. The term “inhibiting an insect or mite” refers to a decrease in the numbers of living insects or mites, or a decrease in the number of viable insect or mite eggs. The extent of reduction accomplished by a compound depends, of course, upon the application rate of the compound, the particular compound used, and the target insect or mite species. At least an inactivating amount should be used. The terms “insect-inactivating amount” and “mite-inactivating amount” are used to describe the amount, which is sufficient to cause a measurable reduction in the treated insect or mite population. Generally an amount in the range from about 1 to about 1000 ppm by weight active compound is used. For example, insects and mites which can be inhibited include, but are not limited to: • Lepidoptera—Heliothis spp., Helicoverpa spp., Spodoptera spp., Mythimna unipuncta, Agrotis ipsilon, Earias spp., Euxoa auxiliaris, Trichoplusia ni, Anticarsia gemmatalis, Rachiplusia nu, Plutella xylostella, Chilo spp., Scirpophaga incertulas, Sesamia inferens, Cnaphalocrocis medinalis, Ostrinia nubilalis, Cydia pomonella, Carposina niponensis, Adoxophyes orana, Archips argyrospilus, Pandemis heparana, Epinotia aporema, Eupoecilia ambiguella, Lobesia botrana, Polychrosis viteana, Pectinophora gossypiella, Pieris rapae, Phyllonorycter spp., Leucoptera malifoliella, Phyllocnisitis citrella • Coleoptera—Diabrotica spp., Leptinotarsa decemlineata, Oulema oryzae, Anthonomus grandis, Lissorhoptrus oryzophilus, Agriotes spp., Melanotus communis, Popillia japonica, Cyclocephala spp., Tribolium spp. • Homoptera—Aphis spp., Myzus persicae, Rhopalosiphum spp., Dysaphis plantaginea, Toxoptera spp., Macrosiphum euphorbiae, Aulacorthum solani, Sitobion avenae, Metopolophium dirhodum, Schizaphis graminum, Brachycolus noxius, Nephotettix spp., Nilaparvata lugens, Sogatella furcifera, Laodelphax striatellus, Bemisia tabaci, Trialeurodes vaporariorum, Aleurodes proletella, Aleurothrixus floccosus, Quadraspidiotus perniciosus, Unaspis yanonensis, Ceroplastes rubens, Aonidiella aurantii • Hemiptera—Lygus spp., Eurygaster maura, Nezara viridula, Piezodorus guildingi, Leptocorisa varicornis • Thysanoptera—Frankliniella occidentalis, Thrips spp., Scirtothrips dorsalis • Isoptera—Reticulitermes flavipes, Coptotermes formosanus • Orthoptera—Blattella germanica, Blatta orientalis, Gryllotalpa spp. • Diptera—Liriomyza spp., Musca domestica, Aedes spp., Culex spp., Anopheles spp. • Hymenoptera—Iridomyrmex humilis, Solenopsis spp., Monomorium pharaonis, Atta spp., Pogonomyrmex spp., Camponotus spp. • Siphonaptera—Ctenophalides spp., Pulex irritans • Acarina—Tetranychus spp., Panonychus spp., Eotetranychus carpini, Phyllocoptruta oleivora, Aculus pelekassi, Brevipalpus phoenicis, Boophilus spp., Dermacentor variabilis, Rhipicephalus sanguineus, Amblyomma americanum, Ixodes spp., Notoedres cati, Sarcoptes scabiei, Dermatophagoides spp. […]

[3] = test system: Cabbage Looper (Trichoplusia ni); assay: Insecticidal test for cabbage looper, treated cabbage leaf disc; conditions: cabbage leaf-dip, 2nd instar larvae, 5 days
From the text: as §1

[4] = test system: Beet Armyworm (Spodoptera exigua); assay: Insecticidal test for beet armyworm, treated lepidopteran diet; set-up: key: A: 90–100; B: 80–89; C: 70–79; D: 60–69; E: 50–59; F: less than 50; G: Inactive; conditions: on diet surface, second-instar larvae, 5 days
From the text: as §1

[5] = test system: Two-spotted Spider Mite (Tetranychus urticae); assay: Insecticidal test for two-spotted spider mite, ovicide method; set-up: key: A: 90–100; B: 80–89; C: 70–79; D: 60–69; E: 50–59; F: less than 50; G: Inactive; conditions: cotton leaf discs, 6 days
Procedure: Insecticidal Test for Two-spotted Spider Mite (Tetranychus urticae)
Ten adult female two-spotted spider mites were placed on eight 2.2 cm leaf discs of cotton leaf, allowed to oviposit over 24 hours, and thereafter removed. […] Discs were placed on an agar substrate and held at 24° C. and 90% RH for 6 days.

[6] = test system: Cotton Aphid (Aphis gossypii); assay: Insecticidal test for cotton aphid, spray on infested squash cotyledons; conditions: 50 ppm spray, 3 days
Procedure: Insecticidal Test for Cotton Aphid (Aphis gossypii)
To prepare spray solutions, 1 mg of each test compound was dissolved into 1 mL of a 90:10 acetone:ethanol solvent. This 1 mL of chemical solution was added to 19 mL of water containing 0.05% Tween 20 surfactant to produce a 50 ppm spray solution.
Squash cotyledons were infested with cotton aphid (all life stages) 16–20 hours prior to application of spray solution. The solution was sprayed on both sides of each infested squash cotyledon (0.5 mL×2 each side) with a sweeping action until runoff. The plants were allowed to air dry and held for 3 days in a controlled room at 26° C. and 40% RH after which time the test was graded. Grading was by actual count using a dissecting microscope and comparison of test counts to the untreated check. Results are given in Tables 1–4 as percent control based on population reduction versus the untreated.

Row | SMILES | WF: activity at 200 ppm against whitefly (% control rating) [1] | TBW: activity at 400 ppm against tobacco budworm (% control rating) [2] | CL: activity at 400 ppm against cabbage looper (% control rating) [3] | BAW: activity at 400 ppm against beet armyworm (% control rating) [4] | SM: activity against two-spotted spider mite (% control rating) [5] | CA: activity at 50 ppm against cotton aphid (% control rating) [6]
1 | Cc1cc(-c2ccc(OC(F)(F)C(Cl)Cl)cc2)sc1-c1nc(-c2c(F)cccc2Cl)nn1C | E (50–59) | A (90–100) | A (90–100) | A (90–100) | B (80–89) | A (90–100)
2 | Cc1cc(-c2ccc(OC(F)(F)C(F)C(F)(F)F)cc2)sc1-c1nc(-c2c(F)cccc2Cl)nn1C (stereo not drawn) | F (less than 50) | A (90–100) | A (90–100) | A (90–100) | A (90–100) | B (80–89)
3 | Cn1nc(-c2c(F)cccc2Cl)nc1-c1sc(-c2ccc(OC(F)(F)C(F)Br)cc2)cc1Cl (stereo not drawn) | G | A (90–100) | A (90–100) | A (90–100) | C (70–79) | E (50–59)
4 | Cn1nc(-c2c(F)cccc2Cl)nc1-c1cc(-c2ccc3c(c2)OCC3)sc1Cl | G | F (less than 50) | A (90–100) | G | G | C (70–79)
5 | Cn1nc(-c2c(F)cccc2Cl)nc1-c1cc(-c2cccc(OC(F)(F)F)c2)sc1Cl | G | G | A (90–100) | G | A (90–100) | A (90–100)
6 | Cn1nc(-c2c(F)cccc2Cl)nc1-c1csc(-c2ccc(Cl)cc2F)c1 | F (less than 50) | F (less than 50) | A (90–100) | G | A (90–100) | B (80–89)
7 | Cn1nc(-c2c(F)cccc2Cl)nc1-c1cc(-c2ccc(C(F)(F)F)cc2F)sc1Cl | F (less than 50) | F (less than 50) | A (90–100) | A (90–100) | G | F (less than 50)
8 | Cn1nc(-c2c(F)cccc2Cl)nc1-c1cc(-c2ccc(Cl)cc2F)sc1Cl | F (less than 50) | F (less than 50) | A (90–100) | A (90–100) | A (90–100) | F (less than 50)
9 | Cc1sc(-c2cccc(OC(F)(F)F)c2)cc1-c1nc(-c2c(F)cccc2Cl)nn1C | F (less than 50) | G | A (90–100) | G | A (90–100) | A (90–100)
10 | Cc1sc(-c2ccc(Cl)cc2F)cc1-c1nc(-c2c(F)cccc2Cl)nn1C | F (less than 50) | G | A (90–100) | A (90–100) | A (90–100) | B (80–89)
11 | Cc1c(-c2nc(-c3c(F)cccc3Cl)nn2C)csc1-c1ccc(C(F)(F)F)cc1F | A (90–100) | B (80–89) | A (90–100) | A (90–100) | F (less than 50) | A (90–100)
12 | Cc1sc(-c2ccc(C(F)(F)F)cc2F)cc1-c1nc(-c2c(F)cccc2Cl)nn1C | G | G | A (90–100) | A (90–100) | B (80–89) | F (less than 50)
13 | Cn1nc(-c2c(F)cccc2Cl)nc1-c1csc(-c2ccc(OC(F)(F)F)cc2F)c1 | G | G | F (less than 50) | G | F (less than 50) | C (70–79)
